Patent US6720346B2, “Thiazole benzamide derivatives and pharmaceutical compositions for inhibiting cell proliferation” (Agouron Pharmaceuticals, Inc., priority 2001, dated 2004)
pIC50, pKi: −log10 of the molar value.

Assays:
CDK2/cyclin A = target: T1, CDK2/cyclin A (Homo sapiens, UniProt P24941); experiment: Inhibition of CDK2/cyclin A retinoblastoma kinase activity (Ki; % inhibition); format: biochemical; settings: for pKi: apparent Ki, CDK2/cyclin A, Rb substrate
T1 construct: made in house; host or cells: CDK2: insect cells (baculovirus); cyclin A: E. coli
Protocol: (§1) Cyclin-dependent kinase activity was measured by quantifying the enzyme-catalyzed, time-dependent incorporation of radioactive phosphate from [^32P]ATP or [^33P]ATP into a protein substrate. Unless noted otherwise, assays were performed in 96-well plates in a total volume of 50 μL, in the presence of 10 mM HEPES (N-[2-hydroxyethyl]piperazine-N′-[2-ethanesulfonic acid]) (pH 7.4), 10 mM MgCl2, 25 μM adenosine triphosphate (ATP), 1 mg/mL ovalbumin, 5 μg/mL leupeptin, 1 mM dithiothreitol, 10 mM β-glycerophosphate, 0.1 mM sodium vanadate, 1 mM sodium fluoride, 2.5 mM ethylene glycol-bis(β-aminoethyl ether)-N,N,N′N′-tetraacetic acid (EGTA), 2% (v/v) dimethylsulfoxide, and 0.03-0.4 μCi [^32/33P]ATP per reaction. Reactions were initiated with enzyme, incubated at 30° C., and terminated after 20 minutes by the addition of ethylenediaminetetraacetic acid (EDTA) to 250 mM. The phosphorylated substrate was then captured on a nitrocellulose or phosphocellulose membrane using a 96-well filtration manifold, and unincorporated radioactivity was removed by repeated washing with 0.85% phosphoric acid. Radioactivity was quantified by exposing the dried membranes to a phosphorimager.
(§2) Compounds from combinatorial libraries were screened from 96-well plates for % inhibition of CDK activity at 30 nM theoretical compound concentration. Inhibition was measured relative to control wells that contained all reaction components including 2% (v/v) DMSO but no compound, after subtraction of background radioactivity measured in the absence of enzyme. Apparent Ki values of discrete compounds were measured by assaying enzyme activity in the presence of different inhibitor compound concentrations and subtracting the background radioactivity measured in the absence of enzyme. The kinetic parameters (kcat, Km for ATP) were measured for each enzyme under the usual assay conditions by determining the dependence of initial rates on ATP concentration. Inhibition data were fit to an equation for competitive inhibition using Kaleidagraph (Synergy Software), or were fit to an equation for competitive tight-binding inhibition using the software KineTic (BioKin, Ltd.).
CDK2 was purified using published methodology (Rosenblatt et al., “Purification and Crystallization of Human Cyclin-dependent Kinase 2,” J. Mol. Biol., 230, 1993, pp. 1317-1319) from insect cells that had been infected with a baculovirus expression vector. […] A complex of CDK2 and proteolyzed cyclin A was prepared and purified by gel filtration. The substrate for this assay was the same Rb substrate fragment used for the CDK4 assays, and the methodology of the CDK2/delta cyclin A and the CDK4/delta cyclin D3 assays was essentially the same, except that CDK2 was present at 10 nM or 19 nM. The duration of the assay was 60 or 75 minutes, during which the time-dependence of product formation was linear and initial rate conditions were met.

human CDK4/cyclin D3 = target: T2, human CDK4/cyclin D3 (Homo sapiens, UniProt P11802); experiment: Inhibition of CDK4/cyclin D retinoblastoma kinase activity (Ki; % inhibition); format: biochemical; settings: for pKi: apparent Ki, CDK4/cyclin D3, Rb substrate
T2 construct: made in house; host or cells: insect cells co-infected with baculovirus vectors
Protocol: as §1, §2
A complex of human CDK4 and genetically truncated (1-264) cyclin D3 was purified using traditional biochemical chromatographic techniques from insect cells that had been co-infected with the corresponding baculovirus expression vectors (see e.g., Meijer and Kim, “Chemical Inhibitors of Cyclin-Dependent Kinases,” Methods in Enzymol., 283 (1997), pp. 113-128.). The enzyme complex (5 nM) was assayed with 0.3-0.5 μg of purified recombinant retinoblastoma protein fragment (Rb) as a substrate. The engineered Rb fragment (residues 386-928 of the native retinoblastoma protein; 62.3 kDa) contains the majority of the phosphorylation sites found in the native 106-kDa protein, as well as a tag of six histidine residues for ease of purification. Phosphorylated Rb substrate was captured by microfiltration on a nitrocellulose membrane and quantified using a phosphorimager as described above. For measurement of tight-binding inhibitors, the assay duration was extended to 60 minutes, during which the time-dependence of product formation was linear and initial rate conditions were met.

HCT-116 cell line = experiment: Inhibition of cell growth, MTT tetrazolium salt assay; format: cell-based
Protocol: Inhibition of cell growth was measured using the tetrazolium salt assay, which is based on the ability of viable cells to reduce 3-(4,5-dimethylthiazol-2-yl)-2,5-[2H]-diphenyltetrazolium bromide (MTT) to formazan (Mossman, Journal of Immunological Methods, 65, (1983), pp. 55-58). The water-insoluble purple formazan product was then detected spectrophotometrically. The HCT-116 cell line was used as a representative cancer cell line and grown in 96-well plates. Cells were plated in McCoy's 5A Medium at a volume of 135 μl/well. Plates were incubated for four hours before addition of inhibitor compounds. Different concentrations of inhibitor compounds were added in 0.5% (v/v) dimethylsulfoxide (15 μL/well), and cells were incubated at 37° C. (5% CO2) for three to five days. At the end of the incubation, MTT was added to a final concentration of 0.2 mg/mL, and cells were incubated for 4 hours more at 37° C. After centrifugation of the plates and removal of medium, the absorbance of the formazan (solubilized in dimethylsulfoxide) was measured at 540 nm. The concentration of inhibitor compound causing 50% (IC50) or 90% ([…]) inhibition of growth was determined from the linear portion of a semi-log plot of inhibitor concentration versus percent inhibition. All results were compared to control cells treated only with 0.5% (v/v) dimethylsulfoxide.

[1] = HCT-116 cells, 0.25 μM compound

T2 sequence (P11802 whole entry): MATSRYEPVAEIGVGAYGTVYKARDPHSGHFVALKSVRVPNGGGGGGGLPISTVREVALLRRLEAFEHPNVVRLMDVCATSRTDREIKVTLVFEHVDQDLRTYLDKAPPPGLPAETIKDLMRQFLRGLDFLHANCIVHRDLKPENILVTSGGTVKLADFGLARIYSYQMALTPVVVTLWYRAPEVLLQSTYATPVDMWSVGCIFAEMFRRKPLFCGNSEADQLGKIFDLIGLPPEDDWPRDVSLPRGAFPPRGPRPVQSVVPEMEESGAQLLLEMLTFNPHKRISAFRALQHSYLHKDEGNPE
T2 sequence (P30281 1-264 partner limits assumed): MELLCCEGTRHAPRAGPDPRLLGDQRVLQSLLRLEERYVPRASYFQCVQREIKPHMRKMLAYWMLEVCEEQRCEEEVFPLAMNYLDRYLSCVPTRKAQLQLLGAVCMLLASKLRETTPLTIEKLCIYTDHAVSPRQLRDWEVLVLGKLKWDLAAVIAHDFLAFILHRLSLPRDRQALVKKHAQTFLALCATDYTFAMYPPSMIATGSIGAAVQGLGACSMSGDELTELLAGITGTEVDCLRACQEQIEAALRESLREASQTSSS

SMILES	CDK2 % Inhibition at 0.03 μM (CDK2/cyclin A; at 0.03 μM) [%]	CDK4 % Inhibition at 0.03 μM (human CDK4/cyclin D3; at 0.03 μM) [%]	CDK2 % Inhibition at 0.03 μM (CDK2/cyclin A; 0.03 μM compound) [%]	CDK4 % Inhibition at 0.03 μM (human CDK4/cyclin D3; 0.03 μM compound) [%]	HCT-116 % Inhibition at 0.25 μM (HCT-116 cell line; HCT-116, at 0.25 μM) [%]	HCT-116 % Inhibition at 0.1 μM (HCT-116 cell line; HCT-116 cells, 0.1 μM compound) [%]	HCT-116 % Inhibition at 0.25 μM (HCT-116 cell line; [1]) [%]	also measured
Nc1nc(Nc2ccc(C(=O)NCCN3CCOCC3)cc2)sc1C(=O)c1c(F)cccc1F [Example G124]	10	17	–	–	64	–	–	HCT-116 % Inhibition at 0.1 μM (HCT-116 cell line; HCT-116, at 0.1 μM): 0%
Nc1nc(Nc2ccc(C(=O)NCCCN3CCCC3=O)cc2)sc1C(=O)c1c(F)cccc1F [Example G88]	−23	6	–	–	49	–	–	HCT-116 % Inhibition at 0.1 μM (HCT-116 cell line; HCT-116, at 0.1 μM): 24%
CN1CCC[C@H]1CNC(=O)c1ccc(Nc2nc(N)c(C(=O)c3c(F)cccc3Cl)s2)cc1 [Example A71, 4-[4-Amino-5-(2-chloro-6-fluoro-benzoyl)-thiazol-2-ylamino]-N-(1-methyl-pyrrolidin-2S-ylmethyl)-benzamide]	–	–	–	–	–	–	–	pKi (CDK2/cyclin A): 8.25; pKi (human CDK4/cyclin D3): 7.09; pIC50 (HCT-116 cell line; Homo sapiens, HCT-116, 120 h, MTT, three to five days): 7.47
NC(=O)C1CCN(C(=O)c2ccc(Nc3nc(N)c(C(=O)c4c(F)cccc4F)s3)cc2)CC1 [Example G43]	5	12	–	–	62	–	–	–
Nc1nc(Nc2ccc(C(=O)Nc3ccccc3CO)cc2)sc1C(=O)c1c(F)cccc1F [Example G53]	17	6	–	–	89	–	–	–
COCC(C)NC(=O)c1ccc(Nc2nc(N)c(C(=O)c3c(F)cccc3F)s2)cc1 (stereo not shown) [Example G103]	−2	5	–	–	59	–	–	HCT-116 % Inhibition at 0.1 μM (HCT-116 cell line; HCT-116, at 0.1 μM): 21%
Nc1nc(Nc2ccc(C(=O)Nc3cccnc3)cc2)sc1C(=O)c1c(F)cccc1F [Example A27, 4-[4-Amino-5-(2,6-difluoro-benzoyl)-thiazol-2-ylamino]-N-(pyridin-3-yl)-benzamide]	–	–	–	–	–	–	–	pKi (CDK2/cyclin A): 7.18; pKi (human CDK4/cyclin D3): 7.39
Nc1nc(Nc2ccc(C(=O)NCCOCCO)cc2)sc1C(=O)c1c(Cl)cccc1Cl [Example B5, 4-[4-Amino-5-(2,6-dichloro-benzoyl)-thiazol-2-ylamino]-N-[2-(2-hydroxy-ethoxy)-ethyl]-benzamide]	–	–	–	–	–	–	–	pKi (CDK2/cyclin A): 6.82; pKi (human CDK4/cyclin D3): 7.23
CN(C)CCNC(=O)c1ccc(Nc2nc(N)c(C(=O)C34CC5CC(CC(C5)C3)C4)s2)cc1 [Example A58, 4-[5-(1-Adamantan-1-yl-methanoyl)-4-amino-thiazol-2-ylamino]-N-(2-dimethylamino-ethyl)-benzamide]	–	–	–	–	–	–	–	pKi (CDK2/cyclin A): 5.47; pKi (human CDK4/cyclin D3): 6.00
CN(C)CCN1C(=O)c2ccc(Nc3nc(N)c(C(=O)c4c(F)cccc4F)s3)cc2C1=O [E, 5-[4-Amino-5-(2,6-difluoro-benzoyl)-thiazol-2-ylamino]-2-(2-dimethylamino-ethyl)-isoindole-1,3-dione]	–	–	–	–	–	–	–	pKi (CDK2/cyclin A): 6.40; pKi (human CDK4/cyclin D3): 6.62

Further lines, with some results ahead:

CDK2 % Inhibition at 0.03 μM (CDK2/cyclin A; at 0.03 μM) [%]	CDK4 % Inhibition at 0.03 μM (human CDK4/cyclin D3; at 0.03 μM) [%]	CDK2 % Inhibition at 0.03 μM (CDK2/cyclin A; 0.03 μM compound) [%]	CDK4 % Inhibition at 0.03 μM (human CDK4/cyclin D3; 0.03 μM compound) [%]	SMILES	HCT-116 % Inhibition at 0.25 μM (HCT-116 cell line; HCT-116, at 0.25 μM) [%]	HCT-116 % Inhibition at 0.1 μM (HCT-116 cell line; HCT-116 cells, 0.1 μM compound) [%]	HCT-116 % Inhibition at 0.25 μM (HCT-116 cell line; [1]) [%]	also measured
–	–	13	20	CCOC(=O)C1CCN(C(=O)c2ccc(Nc3nc(N)c(C(=O)c4c(F)cccc4F)s3)cc2)CC1 [Example G210]	–	15	45	–
6	5	–	–	CCC(COC)NC(=O)c1ccc(Nc2nc(N)c(C(=O)c3c(F)cccc3F)s2)cc1 (stereo not shown) [Example G159]	74	–	–	HCT-116 % Inhibition at 0.1 μM (HCT-116 cell line; HCT-116, at 0.1 μM): 0%
19	29	–	–	C[C@H](NC(=O)c1ccc(Nc2nc(N)c(C(=O)c3c(F)cccc3F)s2)cc1)c1ccccc1 [Example G167]	53	–	–	HCT-116 % Inhibition at 0.1 μM (HCT-116 cell line; HCT-116, at 0.1 μM): 26%
–	–	4	0	Cc1ccc(NC(=O)c2ccc(Nc3nc(N)c(C(=O)c4c(F)cccc4F)s3)cc2)nc1 [Example G352]	–	24	64	–
–	–	4	9	Nc1nc(Nc2ccc(C(=O)NC[C@@H]3CCCC[C@H]3O)cc2)sc1C(=O)c1c(F)cccc1F (relative stereo) [Example G350]	–	24	41	–
–	–	13	15	COc1ccc(NC(=O)c2ccc(Nc3nc(N)c(C(=O)c4c(F)cccc4F)s3)cc2)cc1F [Example G347]	–	21	53	–
–	–	−12	4	CC(C)c1cccc(NC(=O)c2ccc(Nc3nc(N)c(C(=O)c4c(F)cccc4F)s3)cc2)c1 [Example G389]	–	11	61	–
–	–	−25	0	CSc1ccc(NC(=O)c2ccc(Nc3nc(N)c(C(=O)c4c(F)cccc4F)s3)cc2)cc1 [Example G255]	–	25	63	–
–	–	−6	10	CCSCCNC(=O)c1ccc(Nc2nc(N)c(C(=O)c3c(F)cccc3F)s2)cc1 [Example G283]	–	16	75	–
–	–	32	35	COc1cccc(CNC(=O)c2ccc(Nc3nc(N)c(C(=O)c4c(F)cccc4F)s3)cc2)c1 [Example G246]	–	20	62	–
–	–	−12	9	CCCCN(CCCCO)C(=O)c1ccc(Nc2nc(N)c(C(=O)c3c(F)cccc3F)s2)cc1 [Example G340]	–	28	40	–
–	–	−11	−7	CCC(C)CN(CCO)C(=O)c1ccc(Nc2nc(N)c(C(=O)c3c(F)cccc3F)s2)cc1 (stereo not shown) [Example G299]	–	10	49	–
–	–	−10	11	Nc1nc(Nc2ccc(C(=O)Nc3ccc(Cl)cc3)cc2)sc1C(=O)c1c(F)cccc1F [Example G288]	–	16	60	–
18	15	–	–	Nc1nc(Nc2ccc(C(=O)Nc3cccc(-c4cnco4)c3)cc2)sc1C(=O)c1c(F)cccc1F [Example G153]	66	–	–	HCT-116 % Inhibition at 0.1 μM (HCT-116 cell line; HCT-116, at 0.1 μM): 0%
